Experimental data taken from PubChem BioAssay (NCI).
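Results reflect a 48-hour exposure of cells in 96-well plates to compound at five concentrations. TGI: concentration producing complete growth inhibition.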

Experiments:
Assay in all cases: NCI tumour cell line growth inhibition, 48 h
OVCAR-3 ovarian = test system: OVCAR-3 ovarian
HCC-2998 colon = test system: HCC-2998 colon
HL-60(TB) leukemia = test system: HL-60(TB) leukemia
MOLT-4 leukemia = test system: MOLT-4 leukemia
SW-620 colon = test system: SW-620 colon
HOP-18 NSCLC = test system: HOP-18 NSCLC
COLO 205 colon = test system: COLO 205 colon
SF-539 CNS = test system: SF-539 CNS
SR leukemia = test system: SR leukemia
DLD-1 colon = test system: DLD-1 colon
LXFL 529 NSCLC = test system: LXFL 529 NSCLC
LOX IMVI melanoma = test system: LOX IMVI melanoma
SNB-19 CNS = test system: SNB-19 CNS
A549 NSCLC = test system: A549 NSCLC
UACC-257 melanoma = test system: UACC-257 melanoma
SK-MEL-28 melanoma = test system: SK-MEL-28 melanoma
UO-31 renal = test system: UO-31 renal
HT29 colon = test system: HT29 colon
K-562 leukemia = test system: K-562 leukemia
XF 498 CNS = test system: XF 498 CNS
M19-MEL melanoma = test system: M19-MEL melanoma
TK-10 renal = test system: TK-10 renal
ACHN renal = test system: ACHN renal
OVCAR-5 ovarian = test system: OVCAR-5 ovarian
EKVX NSCLC = test system: EKVX NSCLC
SF-295 CNS = test system: SF-295 CNS
SF-268 CNS = test system: SF-268 CNS
OVCAR-8 ovarian = test system: OVCAR-8 ovarian
NCI-H460 lung = test system: NCI-H460 lung
UACC-62 melanoma = test system: UACC-62 melanoma
RXF 393 renal = test system: RXF 393 renal
KM20L2 colon = test system: KM20L2 colon
SNB-75 CNS = test system: SNB-75 CNS
RPMI-8226 leukemia = test system: RPMI-8226 leukemia
SK-OV-3 ovarian = test system: SK-OV-3 ovarian
786-0 renal = test system: 786-0 renal
NCI-H522 lung = test system: NCI-H522 lung
OVCAR-4 ovarian = test system: OVCAR-4 ovarian
IGROV1 ovarian = test system: IGROV1 ovarian
MALME-3M melanoma = test system: MALME-3M melanoma
NCI-H23 lung = test system: NCI-H23 lung
DMS 114 small cell lung = test system: DMS 114 small cell lung
HOP-62 NSCLC = test system: HOP-62 NSCLC
HOP-92 NSCLC = test system: HOP-92 NSCLC
SK-MEL-5 melanoma = test system: SK-MEL-5 melanoma
HCT-116 colon = test system: HCT-116 colon
SN12C renal = test system: SN12C renal
NCI-H226 lung = test system: NCI-H226 lung
M14 melanoma = test system: M14 melanoma
CCRF-CEM leukemia = test system: CCRF-CEM leukemia
KM12 colon = test system: KM12 colon
U251 CNS = test system: U251 CNS
DMS 273 small cell lung = test system: DMS 273 small cell lung
A498 renal = test system: A498 renal
CAKI-1 renal = test system: CAKI-1 renal
SK-MEL-2 melanoma = test system: SK-MEL-2 melanoma
HCT-15 colon = test system: HCT-15 colon
SNB-78 CNS = test system: SNB-78 CNS

COC(=O)N/N=C(\C(=O)Nc1cccc([N+](=O)[O-])c1)c1nc2ccc([N+](=O)[O-])cc2[nH]c1=O
TGI (OVCAR-3 ovarian): > 100 µM
TGI (HCC-2998 colon): > 100 µM
TGI (HL-60(TB) leukemia): > 100 µM
TGI (MOLT-4 leukemia): > 100 µM
TGI (SW-620 colon): > 100 µM
TGI (HOP-18 NSCLC): > 100 µM
TGI (COLO 205 colon): > 100 µM
TGI (SF-539 CNS): > 100 µM
TGI (SR leukemia): > 100 µM
TGI (DLD-1 colon): > 100 µM
TGI (LXFL 529 NSCLC): > 100 µM
TGI (LOX IMVI melanoma): > 100 µM
TGI (SNB-19 CNS): > 100 µM
TGI (A549 NSCLC): > 100 µM
TGI (UACC-257 melanoma): > 100 µM
TGI (SK-MEL-28 melanoma): > 100 µM
TGI (UO-31 renal): > 100 µM
TGI (HT29 colon): > 100 µM
TGI (K-562 leukemia): > 100 µM
TGI (XF 498 CNS): > 100 µM
TGI (M19-MEL melanoma): > 100 µM
TGI (TK-10 renal): > 100 µM
TGI (ACHN renal): > 100 µM
TGI (OVCAR-5 ovarian): > 100 µM
TGI (EKVX NSCLC): > 100 µM
TGI (SF-295 CNS): > 100 µM
TGI (SF-268 CNS): 13.3 µM
TGI (OVCAR-8 ovarian): > 100 µM
TGI (NCI-H460 lung): > 100 µM
TGI (UACC-62 melanoma): 58.5 µM
TGI (RXF 393 renal): > 100 µM
TGI (KM20L2 colon): 67.3 µM
TGI (SNB-75 CNS): > 100 µM
TGI (RPMI-8226 leukemia): > 100 µM
TGI (SK-OV-3 ovarian): > 100 µM
TGI (786-0 renal): > 100 µM
TGI (NCI-H522 lung): 96.6 µM
TGI (OVCAR-4 ovarian): > 100 µM
TGI (IGROV1 ovarian): > 100 µM
TGI (MALME-3M melanoma): > 100 µM
TGI (NCI-H23 lung): > 100 µM
TGI (DMS 114 small cell lung): 40.1 µM
TGI (HOP-62 NSCLC): 66.5 µM
TGI (HOP-92 NSCLC): > 100 µM
TGI (SK-MEL-5 melanoma): > 100 µM
TGI (HCT-116 colon): > 100 µM
TGI (SN12C renal): > 100 µM
TGI (NCI-H226 lung): > 100 µM
TGI (M14 melanoma): > 100 µM
TGI (CCRF-CEM leukemia): > 100 µM
TGI (KM12 colon): > 100 µM

COc1cccc(NC(=O)C(C)(C)C)c1SSc1c(NC(=O)C(C)(C)C)cccc1OC
TGI (OVCAR-3 ovarian): > 100 µM
TGI (HCC-2998 colon): > 100 µM
TGI (HL-60(TB) leukemia): > 73.1 µM
TGI (MOLT-4 leukemia): > 70.6 µM
TGI (SW-620 colon): 33.1 µM
TGI (HOP-18 NSCLC): > 100 µM
TGI (U251 CNS): 35.1 µM
TGI (COLO 205 colon): 69.9 µM
TGI (SF-539 CNS): 45.5 µM
TGI (SR leukemia): 55.3 µM
TGI (DLD-1 colon): > 61.8 µM
TGI (LXFL 529 NSCLC): 29.9 µM
TGI (LOX IMVI melanoma): 30.4 µM
TGI (SNB-19 CNS): > 100 µM
TGI (DMS 273 small cell lung): > 100 µM
TGI (A549 NSCLC): > 100 µM
TGI (UACC-257 melanoma): 51.4 µM
TGI (SK-MEL-28 melanoma): > 57.9 µM
TGI (UO-31 renal): > 88.9 µM
TGI (HT29 colon): > 65.1 µM
TGI (K-562 leukemia): > 82.5 µM
TGI (A498 renal): > 100 µM
TGI (XF 498 CNS): 35.7 µM
TGI (M19-MEL melanoma): > 100 µM
TGI (TK-10 renal): > 100 µM
TGI (ACHN renal): > 100 µM
TGI (OVCAR-5 ovarian): 53.2 µM
TGI (EKVX NSCLC): > 100 µM
TGI (SF-295 CNS): > 100 µM
TGI (SF-268 CNS): 32.7 µM
TGI (OVCAR-8 ovarian): 35.4 µM
TGI (NCI-H460 lung): > 100 µM
TGI (UACC-62 melanoma): 45.4 µM
TGI (RXF 393 renal): 35.3 µM
TGI (CAKI-1 renal): > 60.3 µM
TGI (SK-MEL-2 melanoma): > 100 µM
TGI (HCT-15 colon): 44.4 µM
TGI (KM20L2 colon): > 100 µM
TGI (SNB-75 CNS): > 74.4 µM
TGI (RPMI-8226 leukemia): 51 µM
TGI (SK-OV-3 ovarian): > 100 µM
TGI (786-0 renal): 53.1 µM
TGI (NCI-H522 lung): 27.2 µM
TGI (OVCAR-4 ovarian): > 56.3 µM
TGI (IGROV1 ovarian): > 100 µM
TGI (MALME-3M melanoma): > 63.4 µM
TGI (NCI-H23 lung): > 100 µM
TGI (HOP-62 NSCLC): > 100 µM
TGI (SNB-78 CNS): 51.2 µM
TGI (HOP-92 NSCLC): > 86 µM
TGI (SK-MEL-5 melanoma): > 100 µM
TGI (HCT-116 colon): 42.8 µM
TGI (SN12C renal): > 54.9 µM
TGI (NCI-H226 lung): > 93.6 µM
TGI (M14 melanoma): 32.5 µM
TGI (CCRF-CEM leukemia): > 89.5 µM
TGI (KM12 colon): > 95.5 µM
